Laboratory results taken from PubChem BioAssay AID1259407 (Chemical Carcinogenesis Research Information System (CCRIS), 2018).
The source made the active and inactive calls. No rule for the calls is given here.

Test system: CCRIS mutagenicity, Ames/micronucleus/aberration tests
Experiment: CCRIS mutagenicity studies
[1] = Test System: AMES SALMONELLA TYPHIMURIUM, Strain/Indicator: TA98, Metabolic Activation: NONE, Method: PREINCUBATION
[2] = Test System: AMES SALMONELLA TYPHIMURIUM, Strain/Indicator: TA100, Metabolic Activation: NONE, Method: PREINCUBATION
[3] = Test System: AMES SALMONELLA TYPHIMURIUM, Strain/Indicator: TA1535, Metabolic Activation: NONE, Method: PREINCUBATION
[4] = Test System: AMES SALMONELLA TYPHIMURIUM, Strain/Indicator: TA98, Metabolic Activation: NONE, Method: STANDARD PLATE
[5] = Test System: AMES SALMONELLA TYPHIMURIUM, Strain/Indicator: TA100, Metabolic Activation: NONE, Method: STANDARD PLATE

Measured: mutagenic call

CCCC(=O)C1c2cccc(O)c2C(=O)c2c(O)cccc21
inactive: Test System: E. COLI, Strain/Indicator: WP2, Metabolic Activation: NONE, Method: STANDARD PLATE inactive; negative | Test System: E. COLI, Strain/Indicator: WP2, Metabolic Activation: RAT, LIVER, S-9, AROCLOR 1254, Method: STANDARD PLATE inactive; negative | Test System: E. COLI, Strain/Indicator: WP2 UVRA, Metabolic Activation: NONE, Method: STANDARD PLATE inactive; negative | Test System: E. COLI, Strain/Indicator: WP2 UVRA, Metabolic Activation: RAT, LIVER, S-9, AROCLOR 1254, Method: STANDARD PLATE inactive; negative
active: Test System: AMES SALMONELLA TYPHIMURIUM, Strain/Indicator: TA1537, Metabolic Activation: NONE, Method: STANDARD PLATE active; positive | Test System: AMES SALMONELLA TYPHIMURIUM, Strain/Indicator: TA1537, Metabolic Activation: RAT, LIVER, S-9, PHENOBARBITAL AND BETA-NAPHTHOFLAVONE, Method: STANDARD PLATE active; positive

Oc1ccc2cccc(O)c2c1
active: Test System: AMES SALMONELLA TYPHIMURIUM, Strain/Indicator: TA2637, Metabolic Activation: NONE, Method: PREINCUBATION active; positive

CCCCCCCCCCCCCCCC(=O)O
inactive: [1] inactive; negative | Test System: AMES SALMONELLA TYPHIMURIUM, Strain/Indicator: TA98, Metabolic Activation: RAT LIVER S-9, PHENOBARBITAL AND BETA-NAPHTHOFLAVONE, Method: PREINCUBATION inactive; negative | [2] inactive; negative | Test System: AMES SALMONELLA TYPHIMURIUM, Strain/Indicator: TA100, Metabolic Activation: RAT LIVER S-9, PHENOBARBITAL AND BETA-NAPHTHOFLAVONE, Method: PREINCUBATION inactive; negative | [3] inactive; negative | Test System: AMES SALMONELLA TYPHIMURIUM, Strain/Indicator: TA1535, Metabolic Activation: RAT LIVER S-9, PHENOBARBITAL AND BETA-NAPHTHOFLAVONE, Method: PREINCUBATION inactive; negative | Test System: AMES SALMONELLA TYPHIMURIUM, Strain/Indicator: TA1537, Metabolic Activation: NONE, Method: PREINCUBATION inactive; negative | Test System: AMES SALMONELLA TYPHIMURIUM, Strain/Indicator: TA1537, Metabolic Activation: RAT LIVER S-9, PHENOBARBITAL AND BETA-NAPHTHOFLAVONE, Method: PREINCUBATION inactive; negative | Test System: E.COLI, Strain/Indicator: WP2UVRA/PKM101, Metabolic Activation: NONE, Method: PREINCUBATION inactive; negative | Test System: E.COLI, Strain/Indicator: WP2UVRA/PKM101, Metabolic Activation: RAT LIVER S-9, PHENOBARBITAL AND BETA-NAPHTHOFLAVONE, Method: PREINCUBATION inactive; negative

Cc1ccc2ncccc2c1
active: Test System: AMES SALMONELLA TYPHIMURIUM, Strain/Indicator: TA98, Metabolic Activation: HAMSTER, LIVER, S-9, AROCLOR 1254 (30%), Method: PREINCUBATION active; positive | Test System: AMES SALMONELLA TYPHIMURIUM, Strain/Indicator: TA100, Metabolic Activation: HAMSTER, LIVER, S-9, AROCLOR 1254 (30%), Method: PREINCUBATION active; positive | Test System: AMES SALMONELLA TYPHIMURIUM, Strain/Indicator: TA100, Metabolic Activation: RAT, LIVER, S-9, AROCLOR 1254 (30%), Method: PREINCUBATION active; positive | Test System: AMES SALMONELLA TYPHIMURIUM, Strain/Indicator: TA100, Metabolic Activation: RAT, LIVER, S-9, PHENOBARBITAL AND 5,6-BENZOFLAVONE, Method: PREINCUBATION active; positive | Test System: AMES SALMONELLA TYPHIMURIUM, Strain/Indicator: TA100, Metabolic Activation: RAT, LIVER, S-9, PHENOBARBITAL AND 5,6-NAPHTHOFLAVONE, Method: PREINCUBATION active; positive | Test System: AMES SALMONELLA TYPHIMURIUM, Strain/Indicator: TA100, Metabolic Activation: RAT, LIVER, S-9, Method: PREINCUBATION active; positive
inactive: [1] inactive; negative | Test System: AMES SALMONELLA TYPHIMURIUM, Strain/Indicator: TA98, Metabolic Activation: RAT, LIVER, S-9, AROCLOR 1254 (5 OR 10%), Method: PREINCUBATION inactive; negative | [2] inactive; negative | Test System: UDS RODENT HEPATOCYTES, Strain/Indicator: THY INCORP (NON-S-PHASE), Metabolic Activation: NONE, Method: AUTORADIOGRAPHY inactive; negative

CCN(CC)c1ccc(N=O)cc1
active: Test System: AMES SALMONELLA TYPHIMURIUM, Strain/Indicator: TA100, Metabolic Activation: NONE, Method: FLUCTUATION TEST active; positive

CC12OOC1(C)c1ccccc1O2 (stereo not given)
active: [2] active; positive
inactive: Test System: AMES SALMONELLA TYPHIMURIUM, Strain/Indicator: TA2638, Metabolic Activation: NONE, Method: PREINCUBATION inactive; negative

CC(=O)Nc1ccc(C(=O)/C=C/c2ccccc2)cc1
inactive: [4] inactive; negative | Test System: AMES SALMONELLA TYPHIMURIUM, Strain/Indicator: TA98, Metabolic Activation: RAT, LIVER, S-9, AROCLOR 1254, Method: STANDARD PLATE inactive; negative | [5] inactive; negative | Test System: AMES SALMONELLA TYPHIMURIUM, Strain/Indicator: TA100, Metabolic Activation: RAT, LIVER, S-9, AROCLOR 1254, Method: STANDARD PLATE inactive; negative

c1ccc2c(CCC3CO3)cccc2c1 (stereo not given)
active: [2] active; positive | [5] active; positive | [3] active; positive | Test System: AMES SALMONELLA TYPHIMURIUM, Strain/Indicator: TA1535, Metabolic Activation: NONE, Method: STANDARD PLATE active; positive

[U]
active: End Point: In vitro chromosomal aberrations, Test System: Human colon tumor line LT97, Metabolic Activation: None, Method: 24 color FISH active; positive (breaks at tumor-relevant chromosomes 5, 12, and 17); uranium and nitri

CC(=O)OCc1c2ccccc2cc2c1ccc1ccccc12
active: [4] active; positive | [5] active; positive

CCN(C(=S)[S-])c1ccccc1.CCN(C(=S)[S-])c1ccccc1.[Zn+2]
inactive: [4] inactive; negative | Test System: AMES SALMONELLA TYPHIMURIUM, Strain/Indicator: TA98, Metabolic Activation: S-9, Method: STANDARD PLATE inactive; negative | [5] inactive; negative | Test System: AMES SALMONELLA TYPHIMURIUM, Strain/Indicator: TA100, Metabolic Activation: S-9, Method: STANDARD PLATE inactive; negative
